Test results published in patent US20260306526A1, “COMBINATION THERAPY FOR BACTERIAL INFECTIONS COMPRISING ZINC-CHELATOR, BETA-LACTAM ANTIBIOTIC AND SERINE BETA-LACTAMASE INHIBITOR” (priority 2023, published 2026).
Several values for one entry are separate records, joined by “and”; a condition that tells them apart may be missing. Identical values can stand only once.

Experiments:
[1] = test system: Klebsiella pneumoniae Kpn St147; test: MIC determination, checkerboard broth microdilution, meropenem + zinc chelator + avibactam (Example 1); type: cell-based
Description: Antimicrobial susceptibility testing (AST) by broth microdilution was performed according to The European Committee on Antimicrobial Susceptibility Testing.
Sensititre™ FINMER meropenem 64-0.03 μg/ml plates (Thermo Fischer Diagnostics custom plates; YFINMER) were modified by adding avibactam to rows 3 to 8 in concentrations of 64, 16, 8, 4, 1 and 0.25 μg/ml, respectively. The zinc chelator was added to the wells of the plate, where applicable. Three plates were made per experiment, one without the zinc chelator (plate 1), one with 16 μg/ml of the zinc chelator (plate 2) and one with 32 μg/ml of the zinc chelator (plate 3). The first row in all plates was used as a positive control for meropenem only, and the second row included the zinc chelator in addition to meropenem (no avibactam added to rows 1 or 2). The zinc chelator was added at the indicated concentration to rows 3-8 of plates 2 and 3.
The effect of the combination of zinc chelator/MEM/avibactam was tested on a clinically isolated Klebsiella pneumoniae Kpn St147 actively constitutionally expressing the two resistance mechanisms NDM-1 and KPC-2 simultaneously. As a negative control, bacteria+meropenem was tested alone. As a positive control, bacteria+MEM+zinc chelator was used. In Table 1 and 2, concentrations (μg/ml) of meropenem are given in the top row left to right and avibactam concentrations (μg/ml) are given top to bottom in column 1. […] A blank cell indicates no growth.
The fractional inhibitory concentration (FIC) is defined as the concentration that kills when used in combination with another agent divided by the concentration that has the same effect when used alone. The FIC index (FICI) for the combination of two agents is the sum of their individual FIC values. […]

[2] = test system: Pseudomonas aeruginosa ST111; test: MIC determination, fixed concentration of sBLI (Examples 27-30); type: cell-based; settings: VIM-2, OXA-395, PDC-3, caMHB, 29.4 μM Zn2+
Description: Antimicrobial susceptibility testing (AST) by broth microdilution (MIC determination) was performed according to The European Committee on Antimicrobial Susceptibility Testing (EUCAST) guidelines (see Reading guide for broth microdilution Version 5.0, 2024: https://www.eucast.org).
For combinations containing meropenem as the antibiotic, Sensititre™ FINMER meropenem 64-0.03 μg/mL plates (Thermo Fischer Diagnostics custom plates; YFINMER) were used in most of the experiments. For other antibiotics (and for meropenem whenever a higher start concentration than 64 μg/mL was needed) sterile clear round bottom polystyrene (non-treated) 96-well microplates (Corning 3788) were used for making serial two-fold dilutions of the antibiotic in cation-adjusted Mueller Hinton II broth (caMHB; Thermo Scientific, T3462, containing 29.4 μM Zn^2+ or MILLIPORE, 90922-500G, containing 5.6 μM Zn^2+), across the columns of the microtiter plate (128-0.06 μg/mL; columns 1-12).
The checkerboard plates were all modified by adding a serine β-lactamase inhibitor (sBLI) at a fixed concentration of 16 μg/mL. Additionally, the zinc chelator was added at various fixed concentrations. […]

[3] = test system: many strains of Acinetobacter baumannii; settings: with MEM; cited from earlier work

CN(C[C@H](O)[C@@H](O)[C@H](O)[C@H](O)CO)C(=O)c1ccc(CN(Cc2ccccn2)Cc2ccccn2)nc1 [zinc chelator]
FICI Zinc Chelator ([1]; zinc chelator 16 μg/mL, MEM/avibactam 0.5/0.25 (r9), 0.25/1 (r10), 0.25/4 (r11), 0.06/8 (r12) μg/mL): 0.008 | FICI Zinc Chelator ([1]; zinc chelator 32 μg/mL, MEM/avibactam 0.5/0.25 (r13), 0.12/1 (r14), 0.06/4 (r15), 0.06/8 (r16) μg/mL): 0.016 | amplification of the inhibitory effect ([1]; zinc chelator at 16 μg/ml with MEM + avibactam): about 64 fold | Synergy with the zinc chelator observed at concentration ([2]; Example 27, with PIP and AVI 16 μg/mL): 16 µg/mL | Synergy with the zinc chelator observed at concentration ([2]; Example 28, with PIP and TAZ 16 μg/mL): 16 µg/mL and 8 µg/mL | effect of combination [3]: poor effect
